Measurements from the supplement of paper PMC4862054.

Key:
Settings in all cases: incubation time: 72 h
[1] = tested on: HCC1143; assay: normalised response (% of control), CellTiter-Glo; higher = more viable cells (100 = DMSO, 0 = benzethonium chloride kill control)
Procedure, shortened: (§1)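 Each entry is the normalised signal at a single concentration within a series. The series comprised 5 concentrations in 10-fold steps over a compound-specific 10,000-fold range, placed in 384-well plates into which breast cancer cell lines were seeded as 20 µl suspension and incubated 72 h. CellTox Green (485/520 nm) fluorescence and then CellTiter-Glo luminescence were read, with signals normalised per plate to 0.1 % DMSO (100) and a positive kill control (0).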

[2] = tested on: SK-BR-3; assay: as above
Procedure, shortened: as §1

[3] = tested on: CAL-148; assay: as above
Procedure, shortened: as §1

[4] = tested on: Hs578T; assay: as above
Procedure, shortened: as §1

[5] = tested on: MCF-10A; assay: as above
Procedure, shortened: as §1

[6] = tested on: CAL-51; assay: as above
Procedure, shortened: as §1

[7] = tested on: CAL-85-1; assay: as above
Procedure, shortened: as §1

[8] = tested on: MDA-MB-468; assay: as above
Procedure, shortened: as §1

[9] = tested on: BT-474; assay: as above
Procedure, shortened: as §1

[10] = tested on: MDA-MB-436; assay: as above
Procedure, shortened: as §1

[11] = tested on: MDA-MB-453; assay: as above
Procedure, shortened: as §1

[12] = tested on: HCC1599; assay: as above
Procedure, shortened: as §1

[13] = tested on: MDA-MB-231; assay: as above
Procedure, shortened: as §1

[14] = tested on: DU-4475; assay: as above
Procedure, shortened: as §1

[15] = tested on: CAL-120; assay: as above
Procedure, shortened: as §1

[16] = tested on: HCC1937; assay: as above
Procedure, shortened: as §1

[17] = tested on: HDQ-P1; assay: as above
Procedure, shortened: as §1

[18] = tested on: MFM-223; assay: as above
Procedure, shortened: as §1

[19] = tested on: BT-549; assay: as above
Procedure, shortened: as §1

[20] = tested on: HCC1143; assay: normalised response (% of control), CellTox Green; higher = less cell death (100 = DMSO, 0 = benzethonium chloride kill control)
Procedure, shortened: as §1

[21] = tested on: CAL-148; assay: as above
Procedure, shortened: as §1

[22] = tested on: Hs578T; assay: as above
Procedure, shortened: as §1

[23] = tested on: MCF-10A; assay: as above
Procedure, shortened: as §1

[24] = tested on: CAL-51; assay: as above
Procedure, shortened: as §1

[25] = tested on: CAL-85-1; assay: as above
Procedure, shortened: as §1

[26] = tested on: MDA-MB-468; assay: as above
Procedure, shortened: as §1

[27] = tested on: BT-474; assay: as above
Procedure, shortened: as §1

[28] = tested on: MDA-MB-453; assay: as above
Procedure, shortened: as §1

[29] = tested on: HCC1599; assay: as above
Procedure, shortened: as §1

[30] = tested on: MDA-MB-231; assay: as above
Procedure, shortened: as §1

[31] = tested on: DU-4475; assay: as above
Procedure, shortened: as §1

[32] = tested on: CAL-120; assay: as above
Procedure, shortened: as §1

[33] = tested on: HCC1937; assay: as above
Procedure, shortened: as §1

[34] = tested on: HDQ-P1; assay: as above
Procedure, shortened: as §1

[35] = tested on: MFM-223; assay: as above
Procedure, shortened: as §1

[36] = tested on: BT-549; assay: as above
Procedure, shortened: as §1

[37] = tested on: MDA-MB-436; assay: as above
Procedure, shortened: as §1

## Nc1nc(F)nc2c1ncn2[C@@H]1O[C@H](CO)[C@@H](O)[C@@H]1O [Fludarabine] (1000 nM)
[1]
  normalised response: 106%
[2]
  normalised response: 107%
[3]
  normalised response: 97.2%
[4]
  normalised response: 102%
[5]
  normalised response: 106%
[6]
  normalised response: 131%
[7]
  normalised response: 98.5%
[8]
  normalised response: 102%
[9]
  normalised response: 110%
[10]
  normalised response: 102%
[11]
  normalised response: 101%
[12]
  normalised response: 108%
[13]
  normalised response: 108%
[14]
  normalised response: 102%
[15]
  normalised response: 97.8%
[16]
  normalised response: 99.3%
[17]
  normalised response: 102%
[18]
  normalised response: 107%
[19]
  normalised response: 98.2%
[20]
  normalised response: 117%
[21]
  normalised response: 99.5%
[22]
  normalised response: 50.2%
[23]
  normalised response: 79.7%
[24]
  normalised response: 122%
[25]
  normalised response: 109%
[26]
  normalised response: 124%
[27]
  normalised response: 102%
[28]
  normalised response: 101%
[29]
  normalised response: 105%
[30]
  normalised response: 114%
[31]
  normalised response: 105%
[32]
  normalised response: 101%
[33]
  normalised response: 88.6%
[34]
  normalised response: 111%
[35]
  normalised response: 101%
[36]
  normalised response: 107%

## C=CC(=O)N1CCC[C@@H](n2nc(-c3ccc(Oc4ccccc4)cc3)c3c(N)ncnc32)C1 [Ibrutinib] (100 nM)
[1]
  normalised response: 100%
[2]
  normalised response: 27.5%
[3]
  normalised response: 95.4%
[4]
  normalised response: 106%
[5]
  normalised response: 91%
[6]
  normalised response: 73.1%
[7]
  normalised response: 90.4%
[8]
  normalised response: 93.1%
[9]
  normalised response: 97.5%
[10]
  normalised response: 102%
[11]
  normalised response: 72.5%
[12]
  normalised response: 118%
[13]
  normalised response: 105%
[14]
  normalised response: 105%
[15]
  normalised response: 96.2%
[16]
  normalised response: 97.6%
[17]
  normalised response: 82.5%
[18]
  normalised response: 107%
[19]
  normalised response: 111%
[20]
  normalised response: 92.1%
[21]
  normalised response: 99.6%
[22]
  normalised response: 56.5%
[23]
  normalised response: 101%
[24]
  normalised response: 93.6%
[25]
  normalised response: 84.1%
[26]
  normalised response: 122%
[27]
  normalised response: 83.1%
[37]
  normalised response: 92.1%
[28]
  normalised response: 104%
[29]
  normalised response: 99.2%
[30]
  normalised response: 111%
[31]
  normalised response: 103%
[32]
  normalised response: 103%
[34]
  normalised response: 102%
[36]
  normalised response: 117%
